In patent US8680272B2, “3-arylethynyl substituted quinazolinone compounds” (Council of Scientific & Industrial Research, priority 2011, dated 2014):

Columns and labels:
HS 578T = experiment: Anticancer activity, SRB assay, breast cell line HS 578T; format: cell-based, human; conditions: Breast HS 578T, 48 h continuous drug exposure, —^b means GI50 values not attained at the concentrations used
Experimental: (§1) Some of biological activity studies were carried out at the National Cancer Institute (NCI), Maryland, USA.
(§2) The compounds were evaluated for anticancer activity against sixty human cancer cells derived from nine cancer types (leukemia cell line, non-small-cell lung cell line, colon cell line, CNS cell line, melanoma cell line, ovarian cell line, prostate cell line, renal cell line and breast cancer cell line) as shown in Table 1. For each compound, dose response curves for each cell line were measured at a minimum of five concentrations at 10 fold dilutions. A protocol of 48 h continuous drug exposure was used and a sulforhodamine B (SRB) protein assay was used to estimate cell viability or growth.

[1] = test system: nine melanoma cancer cell line (LOX IMVI, MALME-3M, M14, MDA-MB-435, SK-MEL-2, SK-MEL-28, SK-MEL-5, UACC-257 and UACC-62); experiment: Anticancer activity, SRB assay, melanoma panel; format: cell-based, human; conditions: Melanoma; for mean graph midpoint values (MG_MID) of log10 TGI (Log10TGI50): log value of concentration of the compound resulting in total inhibition of net cell growth; for mean graph midpoint values (MG_MID) of Log10LC50: log value of the concentration of compounds leading to 50% net cell death; for mean graph midpoint values (MG_MID) of Log10GI50: log values of concentration in mol/L causing 50% inhibition of net cell growth
Experimental: as §1, §2

[2] = Anticancer activity, SRB assay, melanoma panel; format: cell-based, human; conditions: Homo sapiens; nine melanoma cancer cell line; exposure period of at least 48 h; read-out: GI50 (range over the panel)
Experimental: as §1, §2

NCI/ADR-RES = experiment: Anticancer activity, SRB assay, ovarian cell line NCI/ADR-RES; format: cell-based, human; conditions: Ovarian NCl/ADR-RES, 48 h continuous drug exposure, —^b means GI50 values not attained at the concentrations used
Experimental: as §1, §2

MOLT-4 = experiment: Anticancer activity, SRB assay, leukemia cell line MOLT-4; format: cell-based; conditions: Homo sapiens; Leukemia MOLT-4; 48 h continuous drug exposure; read-out: Growth Inhibition GI50
Experimental: as §1, §2

NCI-H460 = experiment: Anticancer activity, SRB assay, non-small lung cell line NCI-H460; format: cell-based; conditions: Homo sapiens, Non-small lung NCl-H460, 48 h continuous drug exposure, read-out: Growth Inhibition GI50
Experimental: as §1, §2

NCI-H322M = experiment: Anticancer activity, SRB assay, non-small lung cell line NCI-H322M; format: cell-based, human; conditions: Non-small lung NCl-H322M, 48 h continuous drug exposure, —^b means GI50 values not attained at the concentrations used
Experimental: as §1, §2

SF-295 = experiment: Anticancer activity, SRB assay, CNS cell line SF-295; format: cell-based, human; conditions: CNS SF-295, 48 h continuous drug exposure, —^b means GI50 values not attained at the concentrations used
Experimental: as §1, §2

MDA-MB-231/ATCC = experiment: Anticancer activity, SRB assay, breast cell line MDA-MB-231/ATCC; format: cell-based; conditions: Homo sapiens; Breast MDA-MB-231/ATCC; 48 h continuous drug exposure; read-out: Growth Inhibition GI50
Experimental: as §1, §2

OVCAR-3 = experiment: Anticancer activity, SRB assay, ovarian cell line OVCAR-3; format: cell-based; conditions: Homo sapiens; Ovarian OVCAR-3; 48 h continuous drug exposure; read-out: Growth Inhibition GI50
Experimental: as §1, §2

SR = experiment: Anticancer activity, SRB assay, leukemia cell line SR; format: cell-based; conditions: Homo sapiens, 48 h continuous drug exposure, read-out: Growth Inhibition GI50
Experimental: as §1, §2

[3] = test system: six CNS cancer cell line (SF-268, SF-295, SF-539, SNB-19, SNB-75 and U251); experiment: Anticancer activity, SRB assay, CNS panel; format: cell-based, human; conditions: for mean graph midpoint values (MG_MID) of log10 TGI (Log10TGI50) / mean graph midpoint values (MG_MID) of Log10LC50 / mean graph midpoint values (MG_MID) of Log10GI50: CNS; for mean graph midpoint values (MG_MID) of log10 TGI (Log10TGI50): log value of concentration of the compound resulting in total inhibition of net cell growth; for mean graph midpoint values (MG_MID) of Log10LC50: log value of the concentration of compounds leading to 50% net cell death; for mean graph midpoint values (MG_MID) of Log10GI50: log values of concentration in mol/L causing 50% inhibition of net cell growth; for GI50: Homo sapiens, six CNS cancer cell line, exposure period of at least 48 h, read-out: GI50 (range over the panel)
Experimental: as §1, §2

A498 = experiment: Anticancer activity, SRB assay, renal cell line A498; format: cell-based, human; conditions: 48 h continuous drug exposure, —^b means GI50 values not attained at the concentrations used
Experimental: as §1, §2

[4] = test system: sixty human cancer cell lines derived from nine cancer types; experiment: Anticancer activity against sixty human cancer cell lines; format: cell-based
Experimental: as §1, §2

SK-MEL-5 = experiment: Anticancer activity, SRB assay, melanoma cell line SK-MEL-5; format: cell-based; conditions: Homo sapiens; Melanoma SK-MEL-5; 48 h continuous drug exposure; read-out: Growth Inhibition GI50
Experimental: as §1, §2

UACC-62 = experiment: Anticancer activity, SRB assay, melanoma cell line UACC-62; format: cell-based; conditions: Homo sapiens; Melanoma UACC-62; 48 h continuous drug exposure; read-out: Growth Inhibition GI50
Experimental: as §1, §2

NCI-H226 = experiment: Anticancer activity, SRB assay, non-small lung cell line NCI-H226; format: cell-based, human; conditions: Non-small lung NCl-H226, 48 h continuous drug exposure, —^b means GI50 values not attained at the concentrations used
Experimental: as §1, §2

OVCAR-5 = experiment: Anticancer activity, SRB assay, ovarian cell line OVCAR-5; format: cell-based, human; conditions: Ovarian OVCAR-5, 48 h continuous drug exposure, —^b means GI50 values not attained at the concentrations used
Experimental: as §1, §2

OVCAR-4 = experiment: Anticancer activity, SRB assay, ovarian cell line OVCAR-4; format: cell-based, human; conditions: Ovarian OVCAR-4, 48 h continuous drug exposure, —^b means GI50 values not attained at the concentrations used
Experimental: as §1, §2

NCI-H23 = experiment: Anticancer activity, SRB assay, non-small lung cell line NCI-H23; format: cell-based; conditions: Homo sapiens, Non-small lung NCl-H23, 48 h continuous drug exposure, read-out: Growth Inhibition GI50
Experimental: as §1, §2

MCF7 = experiment: Anticancer activity, SRB assay, breast cell line MCF7; format: cell-based; conditions: Homo sapiens, 48 h continuous drug exposure, read-out: Growth Inhibition GI50
Experimental: as §1, §2

HT29 = experiment: Anticancer activity, SRB assay, colon cell line HT29; format: cell-based; conditions: Homo sapiens, HT-29, 48 h continuous drug exposure, read-out: Growth Inhibition GI50
Experimental: as §1, §2

HOP-92 = experiment: Anticancer activity, SRB assay, non-small lung cell line HOP-92; format: cell-based, human; conditions: Non-small lung HOP-92, 48 h continuous drug exposure, —^b means GI50 values not attained at the concentrations used
Experimental: as §1, §2

[5] = test system: seven colon cancer cell line (COLO 205, HCC-2998, HCT-116, HCT-15, HT29, KM12 and SW-620); experiment: Anticancer activity, SRB assay, colon panel; format: cell-based, human; conditions: for mean graph midpoint values (MG_MID) of log10 TGI (Log10TGI50) / mean graph midpoint values (MG_MID) of Log10LC50 / mean graph midpoint values (MG_MID) of Log10GI50: Colon; for mean graph midpoint values (MG_MID) of log10 TGI (Log10TGI50): log value of concentration of the compound resulting in total inhibition of net cell growth; for mean graph midpoint values (MG_MID) of Log10LC50: log value of the concentration of compounds leading to 50% net cell death; for mean graph midpoint values (MG_MID) of Log10GI50: log values of concentration in mol/L causing 50% inhibition of net cell growth; for GI50: Homo sapiens, seven colon cancer cell line, exposure period of at least 48 h, read-out: GI50 (range over the panel)
Experimental: as §1, §2

SK-OV-3 = experiment: Anticancer activity, SRB assay, ovarian cell line SK-OV-3; format: cell-based, human; conditions: Ovarian SK-OV-3, 48 h continuous drug exposure, —^b means GI50 values not attained at the concentrations used
Experimental: as §1, §2

DU-145 = experiment: Anticancer activity, SRB assay, prostate cell line DU-145; format: cell-based, human; conditions: Prostate DU-145, 48 h continuous drug exposure, —^b means GI50 values not attained at the concentrations used
Experimental: as §1, §2

KM12 = experiment: Anticancer activity, SRB assay, colon cell line KM12; format: cell-based; conditions: Homo sapiens, 48 h continuous drug exposure, read-out: Growth Inhibition GI50
Experimental: as §1, §2

[6] = Homo sapiens, read-out: Growth Inhibition GI50

| SMILES | mean graph midpoint values (MG_MID) of log10 TGI (Log10TGI50) [1] | mean graph midpoint values (MG_MID) of Log10LC50 [1] | mean graph midpoint values (MG_MID) of Log10GI50 [1] [mol/L] | GI50 [2] [nM] | GI50 (MOLT-4) [nM] | GI50 (NCI-H460) [nM] | GI50 (MDA-MB-231/ATCC) [nM] | GI50 (OVCAR-3) [nM] | GI50 (SR) [nM] | mean graph midpoint values (MG_MID) of log10 TGI (Log10TGI50) [3] | mean graph midpoint values (MG_MID) of Log10LC50 [3] | mean graph midpoint values (MG_MID) of Log10GI50 [3] [mol/L] | GI50 [3] [nM] | in vitro anticancer activity (in words) [4] | GI50 (SK-MEL-5) [nM] | GI50 (UACC-62) [nM] | GI50 (NCI-H23) [nM] | GI50 (MCF7) [nM] | GI50 (HT29) [nM] | mean graph midpoint values (MG_MID) of log10 TGI (Log10TGI50) [5] | other results |
| --- | --- | --- | --- | --- | --- | --- | --- | --- | --- | --- | --- | --- | --- | --- | --- | --- | --- | --- | --- | --- | --- |
| Cc1cc(C#Cc2ccccc2)ccc1-n1c(/C=C/c2cc(O)ccc2O)nc2ccccc2c1=O [Compound 4c, (E)-2-(2,5-Dihydroxystyryl)-3-(2-methyl-4-(phenylethynyl)phenyl)quinazolin-4(3H)-one] | −5.52 | −5.22 | −5.83 | 1350 to 1670 | 1140 | 1570 | 1560 | 1490 | 1100 | −5.50 | −5.15 | −5.85 | 1300 to 1620 | exhibiting an in vitro anticancer activity | 1350 | 1520 | 1480 | 1450 | 1950 | −5.53 | GI50 (HS 578T; [6]): 1540 nM; GI50 (NCI/ADR-RES; Homo sapiens, NCI/ADR-RES, read-out: Growth Inhibition GI50): 2060 nM; GI50 (NCI-H322M; Homo sapiens, NCI-H322M, read-out: Growth Inhibition GI50): 1620 nM; GI50 (SF-295; [6]): 1350 nM; GI50 (A498; [6]): 370 nM; GI50 (NCI-H226; Homo sapiens, NCI-H226, read-out: Growth Inhibition GI50): 1520 nM; GI50 (OVCAR-5; [6]): 1390 nM; GI50 (OVCAR-4; [6]): 2400 nM; GI50 (HOP-92; [6]): 1540 nM; mean graph midpoint values (MG_MID) of Log10LC50 [5]: −5.23; mean graph midpoint values (MG_MID) of Log10GI50 [5]: −5.83 mol/L; GI50 [5]: 1030 to 1950 nM; GI50 (SK-OV-3; [6]): 1830 nM; GI50 (DU-145; [6]): 419 nM; GI50 (KM12): 1650 nM |
| COc1ccc2cc(C#Cc3ccc(-n4c(/C=C/c5cc(OC)c(OC)c(OC)c5)nc5ccccc5c4=O)c(C)c3)ccc2c1 [Compound 6l, (E)-3-(4-((6-Methoxynaphthalen-2-yl)ethynyl)-2-methylphenyl)-2-(3,4,5-trimethoxystyryl)quinazolin-4(3H)-one] | >−4.00 | >−4.00 | −4.79 | 1850 to 42600 | 4660 | 2480 | 37000 | 19300 | 395 | >−4.00 | >−4.00 | −4.18 | 7400 | exhibiting an in vitro anticancer activity | 1850 | 2190 | 40500 | 63800 | 3410 | >−4.00 | Growth Inhibition GI50 (HS 578T): —^b; Growth Inhibition GI50 (NCI/ADR-RES): —^b; Growth Inhibition GI50 (NCI-H322M): —^b; Growth Inhibition GI50 (SF-295): —^b; Growth Inhibition GI50 (A498): —^b; Growth Inhibition GI50 (NCI-H226): —^b; Growth Inhibition GI50 (OVCAR-5): —^b; Growth Inhibition GI50 (OVCAR-4): —^b; Growth Inhibition GI50 (HOP-92): —^b; mean graph midpoint values (MG_MID) of Log10LC50 [5]: >−4.00; mean graph midpoint values (MG_MID) of Log10GI50 [5]: −5.16 mol/L; GI50 [5]: 1220 to 17200 nM; Growth Inhibition GI50 (SK-OV-3): —^b; Growth Inhibition GI50 (DU-145): —^b; GI50 (KM12): 4300 nM |
